Assay results: article PMC3350483, “Versatile Toolbox for High Throughput Biochemical and Functional Studies with Fluorescent Fusion Proteins” (PLoS ONE, 2012)
Each block holds one substance with its values, some of them ahead of it.

Tests used:
GFP-Cbx1 [1] = experiment: In vitro histone-tail peptide binding assay on GFP-multiTrap; design: species or system mouse; details: for Binding of GFP-Cbx1 to histone-tail peptide (binding ratios, Figure 2A): 0.15 µM TAMRA-labeled peptide per well, RT 20 min
Method: In the next assay we determined whether this approach is also feasible to quantify binding affinities between GFP-proteins and peptides or DNA. First, we analyzed histone-tail peptide binding specificities of the chromobox homolog 1, Cbx1, fused with a N-terminal GFP-tag using the GFP-multiTrap. GFP-Cbx1 was purified from mammalian cell lysate, as described above, and the bound protein was incubated with TAMRA-labeled histone-tail peptides. A set of 20 different histone-tail peptides (Table 1) was used in technical triplicates in parallel and GFP served as negative control (GFP data is not shown). After removal of unbound substrate the amounts of protein and histone-tail peptide were determined by fluorescence intensity measurements using a micro plate reader. Binding ratios were calculated by dividing the concentration of bound histone-tail peptide by the concentration of GFP fusion (Figure 2A). […] In addition to fluorescent quantification via a micro plate reader, we scanned the TAMRA signals using a Typhoon scanner (Figure 2B). […] These differences could result from different sensitivities of both methods. […] We incubated GFP-Cbx1 with TAMRA-labeled H3K9me3 in parallel with either biotinylated H3K9me3 or H3K9ac histone-tail peptides. […] In contrast, we could not detect a significant difference in binding ratios between di- and trimethylated H3K9 histone tail peptides using a micro plate reader (Figure 2A). One explanation could be the use of different expression systems. While the binding ratios for the HP1β chromo domain were determined using bacterially expressed protein we used a fluorescent fusion protein derived from mammalian cells. […] To determine the binding affinity of GFP-Cbx1 to H3K9me3, we varied the input amount of histone-tail peptide. We plotted the amount of bound histone-tail peptide as a function of total peptide and fitted the values using GraphPad Prism and nonlinear regression (Figure 2D). The amount of bound H3K9me3 histone-tail peptide increases linearly and saturates at approximately 500 nM of input peptide. […] Here, the input amount of protein/substrate was measured in solution, whereas the bound fraction represents one value on the 96-well surface.
For purification, 100 µL or 50 µL precleared cellular lysate for full-area plates or half-area plates, respectively, was added per well and incubated for 2 hours at 4°C on a GFP-multiTrap plate by continuous shaking. After removing the supernatant, wells were washed twice with 100 µL of washing buffer (WB; 20 mM Tris-HCl pH 7.5, 100–300 mM NaCl, 0.5 mM EDTA) and 100 µL of IP or dilution buffer was added for measurement. The amounts of bound protein were determined by fluorescence intensity measurements with a Tecan Infinite M1000 plate reader (Tecan, Austria). Wavelengths for excitation and emission of GFP are 490±10 nm and 511±10 nm, for RFP are 586±5 nm and 608±10 nm and for YFP 525±5 nm and 538±5 nm, respectively. The concentration of proteins was calculated using calibration curves that were determined by measuring the fluorescence signal of known concentrations of purified GFP, RFP and YFP. […] Bound proteins were eluted with 300 mM Glycin pH 2.5 and subsequently buffered with 1 M Tris pH 7.5. Elution fractions were added to SDS-containing sample buffer (referred to as Bound (B)). Bound proteins were visualized by immunoblotting using the anti-GFP mouse monoclonal antibody (Roche, Germany).
The in vitro histone-tail binding assay was performed as described previously. After one-step purification of GFP fusion proteins the wells were blocked with 100 µL 3% milk solved in TBS-T (0.075% Tween) for 30 minutes at 4°C on a plate vortex, shaking gently. After blocking, the wells were equilibrated in 50 µL IP buffer supplemented with 0.05% Tween. […]

HP1β chromo domain = details: bacterially expressed protein; ref [11], [12]; read-out: binding affinities; cited from earlier work
[2] = target: GFP-Cbx1 (chromobox homolog 1 fused with an N-terminal GFP-tag) (mouse) (UniProt P83917); experiment: GFP-multiTrap plate binding assay, fluorescence read-out; GFP fusion held on the GFP-multiTrap 96-well plate, blocked with 3% milk; 0.15 µM TAMRA-labeled histone-tail peptide, 20 min at RT, IP buffer (20 mM Tris-HCl pH 7.5, 150 mM NaCl, 0.5 mM EDTA) with 0.05% Tween; ratio of bound peptide over GFP fusion by plate reader
Sequence of UniProt P83917 (P83917 whole entry, the tested form may be a part): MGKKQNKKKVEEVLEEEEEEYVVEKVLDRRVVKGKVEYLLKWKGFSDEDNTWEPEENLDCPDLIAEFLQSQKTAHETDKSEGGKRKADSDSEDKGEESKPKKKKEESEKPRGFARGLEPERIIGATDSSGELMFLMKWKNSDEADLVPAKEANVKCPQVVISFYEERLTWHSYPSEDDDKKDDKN

GFP-Cbx1 [3] = experiment: Competition assay between TAMRA-labeled H3K9me3 and biotinylated histone-tail peptides; type: binding, mouse; details: biotinylated peptide added in parallel; Figure 2C; three independent experiments; **P<0.003
Method: In the next assay we determined whether this approach is also feasible to quantify binding affinities between GFP-proteins and peptides or DNA. First, we analyzed histone-tail peptide binding specificities of the chromobox homolog 1, Cbx1, fused with a N-terminal GFP-tag using the GFP-multiTrap. GFP-Cbx1 was purified from mammalian cell lysate, as described above, and the bound protein was incubated with TAMRA-labeled histone-tail peptides. A set of 20 different histone-tail peptides (Table 1) was used in technical triplicates in parallel and GFP served as negative control (GFP data is not shown). After removal of unbound substrate the amounts of protein and histone-tail peptide were determined by fluorescence intensity measurements using a micro plate reader. Binding ratios were calculated by dividing the concentration of bound histone-tail peptide by the concentration of GFP fusion (Figure 2A). […] In addition to fluorescent quantification via a micro plate reader, we scanned the TAMRA signals using a Typhoon scanner (Figure 2B). […] In contrast, we could not detect a significant difference in binding ratios between di- and trimethylated H3K9 histone tail peptides using a micro plate reader (Figure 2A). […] While the binding ratios for the HP1β chromo domain were determined using bacterially expressed protein we used a fluorescent fusion protein derived from mammalian cells. […]

Cbx1 = Cbx1 (UniProt P83917); experiment: TAMRA-peptide binding to GFP-multiTrap-immobilised GFP-Cbx1; details: reference: H3K9me3 peptide; sites S10
[4] = target: GFP-PBD (green fluorescent PCNA-binding domain of Dnmt1); experiment: GFP-multiTrap plate binding assay, fluorescence read-out; GFP fusion held on the GFP-multiTrap plate, blocked with 3% milk, incubated with HEK293T cellular extract holding the RFP fusion for 30 min at RT; molar ratio of bound RFP fusion over GFP fusion by plate reader
[5] = plate reader, three independent experiments

Substance: ART K QTARKSTGGKAPRKQLK [H3 (1–20), TAMRA-labeled unmodified histone H3 tail peptide, residues 1–20]
Binding of Cbx1 with varied input amount of peptide (Figure 2D) (GFP-Cbx1 [1]; varied input of TAMRA-labeled peptide, plate reader, two independent experiments for H3): could not detect any binding

Substance: ARTKQTAR X2 S TGGKAPRKQLK [H3K9me2, TAMRA-labeled histone H3 tail peptide, dimethylated Lysine 9]
Kd (HP1β chromo domain): 7 µM
Binding of GFP-Cbx1 to histone-tail peptide (binding ratios, Figure 2A) (GFP-Cbx1 [1]; [5]): preferentially binds
TAMRA signals of bound peptide by Typhoon scanner (Figure 2B) (GFP-Cbx1 [1]; fluorescence scanner): detected TAMRA signals

Substance: ARTKQTAR X3 S TGGKAPRKQLK [H3K9me3, TAMRA-labeled histone H3 tail peptide, trimethylated Lysine 9]
Kd (HP1β chromo domain): 2.5 µM
Binding of GFP-Cbx1 to histone-tail peptide (binding ratios, Figure 2A) (GFP-Cbx1 [1]; [5]): preferentially binds
TAMRA signals of bound peptide by Typhoon scanner (Figure 2B) (GFP-Cbx1 [1]; fluorescence scanner): detected TAMRA signals
Preference in binding by fluorescence scanner (GFP-Cbx1 [1]; fluorescence scanner, no difference seen with micro plate reader): preference for tri- over dimethylated H3K9
Input peptide at which bound histone-tail peptide saturates (GFP-Cbx1 [1]; varied input of TAMRA-labeled peptide, Figure 2D, nonlinear regression, three independent experiments): approximately 500 nM

Substance: ARTKQTAR X3 Z2 TGGKAPRKQLK [H3K9me3S10p, TAMRA-labeled H3 tail peptide, trimethylated Lysine 9 and phosphorylated Serine 10]
Binding of GFP-Cbx1 to histone-tail peptide (binding ratios, Figure 2A) (GFP-Cbx1 [1]; [5]): prevents binding

Substance: biotinylated H3K9me3: biotinylated H3K9me3 histone-tail peptide used as competitor
Effect of competitor on binding of Cbx1 to TAMRA-labeled H3K9me3 (GFP-Cbx1 [3]): significantly decreased

Substance: histone H3 1-20 (from UniProt P68431) H3K9me3S10p peptide
binding against the reference (Cbx1): lost

The remaining lines, values ahead:

relative binding ratio (substrate/GFP fusion) [2]: 0.0772
Substance: H3 (1–20) histone-tail peptide, TAMRA-labeled

relative binding ratio (substrate/GFP fusion) [2]: 0.572
Substance: H3K9me3 histone-tail peptide, TAMRA-labeled

Effect of competitor on binding of Cbx1 to TAMRA-labeled H3K9me3 (GFP-Cbx1 [3]): did not alter
Substance: biotinylated H3K9ac: biotinylated H3K9ac histone-tail peptide used as competitor

relative binding ratio (substrate/GFP fusion) [4]: 0.005
Substance: mRFP
